Experimental data taken from US8835632B2, “Methods to increase the photostability of dyes” (The University of North Carolina at Chapel Hill, priority 2007, dated 2014).

Legend:
Format in all cases: physicochemical
[1] = Photobleaching under constant illumination from a halogen tungsten lamp filtered through glass; conditions: MeOH; for kph(rel) (relative rate of photobleaching): with respect to standard I-TBA in MeOH
Description: The photostability of dyes can be important for applications in living cells. The mechanism of photobleaching for merocyanines of varying structure has been examined See Toutchkine et al., J. Am. Chem. Soc. 125:4132-4145 (2003). The photostability of the presently disclosed dyes was characterized by exposing them to constant illumination from a halogen tungsten lamp filtered through glass. This broad spectrum light source provided essentially equal intensity throughout the spectral range where the dyes absorb and where they would be irradiated in vivo (about 600 nm to about 650 nm).

[2] = Relative rate of reaction with chemically generated singlet oxygen in DMSO; conditions: 2.5 mM, 1O2 from 1,4-dimethylnaphtalene-1,4-endoperoxide
Experimental: The bleaching rates for the dyes differed by two orders of magnitude. The relative rate constants kr (rel) for product formation during reaction with singlet oxygen were measured by comparing the percent conversions for dyes dissolved in DMSO containing a fixed amount of ^1O2 (2.5 mM solutions; ^1O2 generated by decomposition of 1,4-dimethylnaphtalene-1,4-endoperoxide). The rates were generally higher for dyes with a polar ground state (1a, 2a, 2b, 2d) than for the dyes with their ground state at the “cyanine limit” (3, 4). […] Olefins without allylic hydrogens react with singlet oxygen to form dioxetanes. Dioxetanes are unstable and decompose, to form two carbonyl compounds.

[3] = Absorption and fluorescence spectra, extinction coefficient, fluorescence quantum yield
Experimental: Absorption spectra were recorded on a Hewlett-Packard 8453 diode array UV-Vis spectrophotometer (Agilent Technologies, Inc., Santa Clara, Calif.), and fluorescence measurements were taken on a SPEX® Fluorolog 2 spectrofluorometer (HORIBA Jobin Yvon, Inc., Edison, N.J.). Melting points are not corrected. NMR spectra were obtained on a Varian Mercury 300 MHz (Varian, Inc., Palo Alto, Calif.) or on a Bruker 300 MHz DRX 300 spectrometer (Bruker Biospin Corp., Billerica, Mass.). Mass spectra were obtained on a Hewlett-Packard 1100 high-performance liquid chromatograph equipped with an 1100 mass selective detector (MS-ESI) (Agilent Technologies, Inc.).
With decreasing solvent polarity, the absorption maximum of dyes 1a-b, 2a-d shifted to longer wavelengths, and the intensity of the transition increased (Table 10, FIG. 11).
The SCRF/VSCRF predicted emission energies and the solute dipole moments before and after the vertical emission process are given in Table 16. The dipole moments of AI-BA(4) and AI-SO(4) are further decreased on the S1 surface after geometry relaxation (in MeOH solution), and then increased during the S1→S0 transition. This observation is consistent with the blue shifts of the emission bands of AI-BA(4) and AI-SO(4) with increasing solvent polarity from C6H6 to MeOH. By contrast, the dipole moment of I-SO further decreases after S1 state geometry relaxation, and then decreases during the vertical emission process. This observation also is in agreement with the red shift of the I-SO emission band with increasing solvent polarity from C6H6 to MeOH. Similarly to the absorption case, a negligible red shift (ΔEem=0.017 eV) was predicted for the emission band of I-TBA with increasing solvent polarity. A small red shift from C6H6 to DMF (with ΔEem=0.020 eV, or Δλmax=6 nm) is observed. The nearly equal emission energy observed in C6H6 and MeOH can again result in the explicit interactions between the solute and solvent molecules.

Cn1c([O-])c(/C=C/C=C/c2cc[n+]3c(c2)C(C)(C)c2ccccc2-3)c(=O)n(C)c1=O [AI-BA]
kph * 10^6 (absolute rate of photobleaching) [1]: 68 s^−1
kph(rel) (relative rate of photobleaching) [1]: 200
kr(rel) (relative rate constants for product formation during reaction with singlet oxygen produced chemically) [2]: 25.6
Absorption energy Eabs Exp ([3]; C6H6): 1.873 eV
Emission energy Eem Exp ([3]; C6H6): 1.851 eV
Absorption energy Eabs Exp ([3]; MeOH): 2.120 eV
Emission energy Eem Exp ([3]; MeOH): 2.006 eV
Observed absorption (ε) ([3]; Table 10, BuOH): (154000)
Observed absorption λmax ([3]; Table 10, BuOH): 615 nm
Observed absorption (ε) ([3]; Table 10, C6H6): ±201000)
Observed absorption λmax ([3]; Table 10, C6H6): 662 nm
Observed absorption (ε) ([3]; Table 10, CH2Cl2): (224000)
Observed absorption λmax ([3]; Table 10, CH2Cl2): 647 nm
Observed absorption (ε) ([3]; Table 10, CH3CN): (141000)
Observed absorption λmax ([3]; Table 10, CH3CN): 621 nm
Observed absorption (ε) ([3]; Table 10, DMF): (146000)
Observed absorption λmax ([3]; Table 10, DMF): 625 nm
Observed absorption (ε) ([3]; Table 10, DMSO): (122000)
Observed absorption λmax ([3]; Table 10, DMSO): 617 nm
Observed absorption (ε) ([3]; Table 10, EtOH): (104000)
Observed absorption λmax ([3]; Table 10, EtOH): 604 nm
Observed absorption (ε) ([3]; Table 10, MeOH): (83000)
Observed absorption λmax ([3]; Table 10, MeOH): 585 nm
Observed absorption (ε) ([3]; Table 10, OcOH): (143000)
Observed absorption λmax ([3]; Table 10, OcOH): 628 nm
Observed absorption (ε) ([3]; Table 10, i-PrOH): (132000)
Observed absorption λmax ([3]; Table 10, i-PrOH): 614 nm
Absorption Exp wavelength ([3]; Table 12, C6H6): 662 nm
Absorption Exp wavelength ([3]; Table 12, MeOH): 585 nm
Observed emission (Φ) ([3]; Table 15, BuOH): 0.29
Observed emission λmax ([3]; Table 15, BuOH): 654 nm
Observed emission (Φ) ([3]; Table 15, C6H6): 0.01
Observed emission λmax ([3]; Table 15, C6H6): 670 nm
Observed emission (Φ) ([3]; Table 15, CH2Cl2): 0.03
Observed emission λmax ([3]; Table 15, CH2Cl2): 664 nm
Observed emission (Φ) ([3]; Table 15, CH3CN): 0.05
Observed emission λmax ([3]; Table 15, CH3CN): 652 nm
Observed emission (Φ) ([3]; Table 15, DMF): 0.26
Observed emission λmax ([3]; Table 15, DMF): 658 nm
Observed emission (Φ) ([3]; Table 15, DMSO): 0.23
Observed emission λmax ([3]; Table 15, DMSO): 657 nm
Observed emission (Φ) ([3]; Table 15, EtOH): 0.19
Observed emission λmax ([3]; Table 15, EtOH): 651 nm
Observed emission (Φ) ([3]; Table 15, MeOH): 0.52
Observed emission λmax ([3]; Table 15, MeOH): 618 nm
Observed emission (Φ) ([3]; Table 15, OcOH): 0.64
Observed emission λmax ([3]; Table 15, OcOH): 656 nm
Observed emission (Φ) ([3]; Table 15, i-PrOH): 0.22
Observed emission λmax ([3]; Table 15, i-PrOH): 652 nm
Eabs(MeOH)-Eabs(C6H6) Exp ([3]; blue shift of absorption band C6H6 to MeOH): 0.247 eV

CC1(C)c2ccccc2-[n+]2ccc(/C=C/C3=C([O-])c4ccccc4S3(=O)=O)cc21 [AI-SO(2)]
kph * 10^6 (absolute rate of photobleaching) [1]: 0.7 s^−1
kph(rel) (relative rate of photobleaching) [1]: 2.1
kr(rel) (relative rate constants for product formation during reaction with singlet oxygen produced chemically) [2]: 20.3
Observed absorption (ε) ([3]; Table 10, BuOH): (120000)
Observed absorption λmax ([3]; Table 10, BuOH): 554 nm
Observed absorption (ε) ([3]; Table 10, C6H6): (235000)
Observed absorption λmax ([3]; Table 10, C6H6): 570 nm
Observed absorption (ε) ([3]; Table 10, CH2Cl2): (218000)
Observed absorption λmax ([3]; Table 10, CH2Cl2): 561 nm
Observed absorption (ε) ([3]; Table 10, CH3CN): (149000)
Observed absorption λmax ([3]; Table 10, CH3CN): 549 nm
Observed absorption (ε) ([3]; Table 10, DMF): (157000)
Observed absorption λmax ([3]; Table 10, DMF): 556 nm
Observed absorption (ε) ([3]; Table 10, DMSO): (126000)
Observed absorption λmax ([3]; Table 10, DMSO): 555 nm
Observed absorption (ε) ([3]; Table 10, EtOH): (111000)
Observed absorption λmax ([3]; Table 10, EtOH): 549 nm
Observed absorption (ε) ([3]; Table 10, MeOH): (92000)
Observed absorption λmax ([3]; Table 10, MeOH): 542 nm
Observed absorption (ε) ([3]; Table 10, OcOH): (150000)
Observed absorption λmax ([3]; Table 10, OcOH): 559 nm
Observed absorption (ε) ([3]; Table 10, i-PrOH): (132000)
Observed absorption λmax ([3]; Table 10, i-PrOH): 553 nm
Observed emission (Φ) ([3]; Table 15, BuOH): 0.16
Observed emission λmax ([3]; Table 15, BuOH): 567 nm
Observed emission (Φ) ([3]; Table 15, C6H6): 0.02
Observed emission λmax ([3]; Table 15, C6H6): 577 nm
Observed emission (Φ) ([3]; Table 15, CH2Cl2): 0.06
Observed emission λmax ([3]; Table 15, CH2Cl2): 571 nm
Observed emission (Φ) ([3]; Table 15, CH3CN): 0.06
Observed emission λmax ([3]; Table 15, CH3CN): 561 nm
Observed emission (Φ) ([3]; Table 15, DMF): 0.16
Observed emission λmax ([3]; Table 15, DMF): 567 nm
Observed emission (Φ) ([3]; Table 15, DMSO): 0.24
Observed emission λmax ([3]; Table 15, DMSO): 567 nm
Observed emission (Φ) ([3]; Table 15, EtOH): 0.09
Observed emission λmax ([3]; Table 15, EtOH): 563 nm
Observed emission (Φ) ([3]; Table 15, MeOH): 0.05
Observed emission λmax ([3]; Table 15, MeOH): 561 nm
Observed emission (Φ) ([3]; Table 15, OcOH): 0.21
Observed emission λmax ([3]; Table 15, OcOH): 569 nm
Observed emission (Φ) ([3]; Table 15, i-PrOH): 0.13
Observed emission λmax ([3]; Table 15, i-PrOH): 565 nm
